Assay results from PMC6018746, “Activation of the p53-MDM4 regulatory axis defines the anti-tumour response to PRMT5 inhibition through its role in regulating cellular splicing” (Scientific Reports, 2018).

Experiments:
[1] = test system: MDM4 alternative splicing in Z-138 cells; experiment: MDM4 splicing RT-PCR; assay type: cell-based, human; details: 3-day exposure, 1.6 nM to 1 μM tested
Description: We confirmed PRMT5 inhibitor-induced alternative splicing of MDM4 from the full-length isoform (MDM4-FL) to the short isoform (MDM4-S) at both treatment concentrations, with the most robust changes after 3 days of compound exposure.
RNA was isolated from cell pellets as described above and was converted to cDNA using ABI High Capacity Reverse Transcription Reagents (4274966) per manufacturer’s instructions and PCR was performed as described elsewhere. Reaction products were separated using agarose ethidium bromide gel electrophoresis and visualized using a Bio-Rad VersaDoc Model 5000 imaging system.

[2] = molecular target: panel containing 20 methyltransferases including PRMT9; experiment: methyltransferase selectivity panel; assay type: biochemical; details: other methyltransferases including PRMT9, substrates near KM^app
Description: (A) Plots indicating the mode of inhibition against
IC50 values are graphed as a function of substrate concentration relative to Kmapp
(top panel, SAM; bottom panel, H4 1-21 peptide). Data points (closed vs. open
circles) represent two independent experiments. (B) IC50 values plotted as a
represent data generated using 0.8 nM PRMT5/MEP50 while closed circles
represent data with 4 nM PRMT5/MEP50 (top panel).
following a 60 minute Enz:SAM:Inh preincubation fit to a 3-parameter dose-
Enz:SAM:Inh preincubation. IC50 values were determined by fitting inhibition
data to a 3-parameter dose-response equation. Ki*app values were calculated
from IC50 values using the Cheng-Prusoff equation for a competitive inhibitor.

[3] = test system: SDMA in a panel of breast and lymphoma cell lines; experiment: SDMA EC50 in breast and lymphoma cell line panel; assay type: cell-based; details: Homo sapiens; all cell lines of the panel; read-out: SDMA EC50 range
Description: SDMA ELISA was performed on homogenized cells and frozen tumour lysates. Fluorescence intensity generated by addition of Luminata Forte (Millipore #WBKUF0500) substrate was measured on a PerkinElmer Envision plate reader.
Cells were seeded in optical bottom cell culture plates and targets were probed with fluorescent secondary antibodies and DAPI stain. Quantification of nuclear SDMA and SMD3 levels was performed with a Molecular Devices […] high-content fluorescence imager and image analysis was performed with ImageExpress software.

[4] = test system: p53 wild-type Z-138 xenograft model; experiment: Z-138 xenograft efficacy; assay type: in vivo, mouse; details: 21 days
[5] = test system: SDMA in Z-138 tumors; experiment: SDMA in Z-138 tumour xenograft; assay type: in vivo, mouse; details: 7 days
Description: Treatment was re-instated on day 32 for 2 weeks followed by a 1 week holiday. […] QD doses evaluated include 0, 50, 100, and 200 mg/kg. […] Sampling 2 hours post last dose. […] SDMA ELISA was performed on homogenized cells and frozen tumour lysates. Fluorescence intensity generated by addition of Luminata Forte (Millipore #WBKUF0500) substrate was measured on a PerkinElmer Envision plate reader.

[6] = mouse pharmacokinetics; assay type: in vivo; details: data not shown
[7] = body weight of Z-138 tumour bearing mice; assay type: in vivo, mouse; details: any of the treatment groups
Excerpt: Supplementary Figure S7. […] Z-138 tumour
Treatments were reinstated on day 32 for 2 weeks followed by a one week holiday.

Structure (SMILES) | concentration at which MDM4 alternative splicing was evident [1] [nM] | IC50 [2] [nM] | EC50 [3] [nM] | tumour growth inhibition (TGI) ([4]; 25 mg/kg BID oral) [%] | tumour growth inhibition (TGI) ([4]; 50 mg/kg BID oral) [%] | tumour growth inhibition (TGI) ([4]; 100 mg/kg BID oral) [%] | SDMA % vehicle ([5]; 0.5 mg/kg BID) [%] | SDMA % vehicle ([5]; 1.4 mg/kg BID) [%] | SDMA % vehicle ([5]; 4.2 mg/kg BID) [%] | SDMA % vehicle ([5]; 12.5 mg/kg BID) [%] | SDMA % vehicle ([5]; 25 mg/kg BID) [%] | SDMA % vehicle ([5]; 50 mg/kg BID) [%] | SDMA % vehicle ([5]; 50 mg/kg QD) [%] | SDMA % vehicle ([5]; 100 mg/kg BID) [%] | SDMA % vehicle ([5]; 100 mg/kg QD) [%] | SDMA % vehicle ([5]; 200 mg/kg QD) [%] | elimination half-life [6] [h] | body weight [7]
O=C(NC[C@H](O)CN1CCc2ccccc2C1)c1ccnc(NC2CCC2)c1 [GSK3203591] | ≥ 8 | – | – | – | – | – | – | – | – | – | – | – | – | – | – | – | – | –
CC(=O)N1CCC(Nc2cc(C(=O)NC[C@H](O)CN3CCc4ccccc4C3)ncn2)CC1 [GSK3326595] | – | > 40000 | 2 to 160 | 52.1 | 88.03 | 106.05 | 71 | 47 | 28 | 9 | 5 | 8 | 16 | 2 | 12 | 9 | 1.8 | No significant body weight losses
